Consider two compounds from patent US20040019092A1, “Non-peptide somatostatin receptor ligands” (priority 2001, published 2004).

Usually bioavailability stands for dose-corrected exposure relative to a reference, in per cent. A high value points to much systemic uptake. In general, Vd refers to the apparent volume that relates the amount in the body to the concentration in plasma or blood. As usually defined, the clearance is the volume of plasma or blood freed of the substance per unit of time. High values mean efficient removal, low ones inefficient removal. One may read the half-life as how long it takes for the measured level to halve. A low value points to rapid decline.

For one data set, the target named is sst2 (Homo sapiens, UniProt P30874). Nature of the data set: sst2 cyclase (second messenger studies). The format is cell-based. From the text: In particular the compounds of the invention bind to somatostatin receptors. More particularly they are selective agonists at Somatostatin sst2 receptors, as determined in radioligand binding and second messenger studies (see for example K. Kaupmann et al., FEBS LETTERS 1993, 331, […]).

Data set [1] in a line: Brain penetration in rat after 48-hour intravenous infusion. The format is in vivo. Particulars: rats; for concentration at 48 h / Kp at 48 h: male, rat, iv, 100 μg/h; for Kp at 48 h: brain/whole blood. The protocol:
The in vivo brain penetration of compound 42 after a 48-hour intravenous infusion was assessed. [^14C]-42-ch was intravenously administered to 5 male rats at a loading dose of 0.3 mg(-b)/rat and then infused at a constant rate of 100 μg(-b)/h for 48 hours using a syringe pump connected to the femoral vein. Immediately after stopping the infusion, the rats were sacrificed. Blood and brain were collected and analyzed for total radioactivity and unchanged compound 42.

The nature of data set [2]: Unidirectional brain extraction (Brain Uptake Index), single intracarotid injection. As to conditions: rat, 5 s after intracarotid injection, Ringer buffer as vehicle. The format is in vivo, Wistar rats. The protocol: The unidirectional influx for [^14C]-42 was measured by the brain sampling single injection technique in adult male Wistar rats (˜220 g) under anesthesia (ketamine 130 mg/kg i.m., xylazine 1.3 mg/kg i.m.) (Oldendorf, W. H. “Measurement of brain uptake of radiolabeled substances using tritiated water internal standard” Brain Res., 1970, 24, 372-376). A bolus of ˜220 μL 0.001 M HEPES-buffered Ringer's solution pH 7.4, or rat plasma, was rapidly injected into the common carotid artery. The bolus contained [^14C]-42 (68 μg/mL) together with tritiated water (25 μCi/mL); the amount of ethanol in the injectate was 1% (v/v). The animals were decapitated 5 seconds after the injection. […] The percentage BUI (Brain Uptake Index) was calculated as […]
The brain extraction ratio E was calculated from E=BUI*0.62, where 0.62 represents the brain extraction ratio of tritiated water (Pardridge, W. M. et al. “Absence of albumin receptor on brain capillaries in vivo or in vitro” Am. J. Physiol, 1985, 249, E264-E267). In order to quantify a possible sequestration of [^14C]-42 by the brain microvasculature, the brain hemispheres of 3 rats were submitted to capillary depletion (Triguero, D, et al. “Capillary depletion method for quantifying the blood-brain barrier transcytosis of circulating peptides and plasma proteins” J. Neurochem, 1990, 54, 1882-1888). […]

The nature of data set [3]: Capillary depletion of brain hemispheres. The format is in vivo, rat. Particulars: n=3 rats. The protocol: The brain extraction ratio E was calculated from E=BUI*0.62, where 0.62 represents the brain extraction ratio of tritiated water (Pardridge, W. M. et al. “Absence of albumin receptor on brain capillaries in vivo or in vitro” Am. J. Physiol, 1985, 249, E264-E267). In order to quantify a possible sequestration of [^14C]-42 by the brain microvasculature, the brain hemispheres of 3 rats were submitted to capillary depletion (Triguero, D, et al. “Capillary depletion method for quantifying the blood-brain barrier transcytosis of circulating peptides and plasma proteins” J. Neurochem, 1990, 54, 1882-1888). The ^14C-radioactivity observed in the pellet (capillary bed/endothelial cells and pericytes) was compared to the ^14C-radioactivity observed in the supernatant (transcytosis space/interstitial fluid).

A short description of data set [4]: In vitro blood distribution. The data set is classed as in vitro ADME. As to conditions: rat blood, 5-5000 ng/mL. The protocol:
(§1) In vitro blood distribution and plasma protein binding. For blood distribution studies, fresh, heparinized rat blood (n=3) was spiked with [^14C]-42 to achieve the final concentrations of 5, 50, 500 and 5000 ng/mL. After a 30-minutes incubation at 4° C., 22° C. and 37° C., the samples were centrifuged (1600×g, 10 minutes, at the incubation temperature) to get plasma. The fraction free of 42 in plasma of rat and human was determined by equilibrium dialysis. Phosphate buffer was spiked with [^14C]-42 (50, 500, 5000 ng/mL) and dialyzed versus blank rat and human plasma at 37° C. for 2 hours. The radioactivity was determined in spiked blood samples, in plasma obtained after centrifugation and in both compartments after dialysis.

Data set [5] can be described thus: Plasma protein binding, equilibrium dialysis, rat plasma. The format is in vitro ADME. The protocol:
as §1
For orientation: In equilibrium dialysis free small molecules cross a membrane that holds back macromolecules.

Data set [6] in a line: Plasma protein binding, equilibrium dialysis, human plasma. Particulars: 50-5000 ng/mL, 37° C. The format is in vitro ADME. The protocol:
as §1

For data set [7] the following is noted: male, Wistar, rat, in vivo, iv.
Experimental: (§2) The pharmacokinetic study was performed with 3 male Wistar rats (BRL) weighing 300-330 g with a one week interval between administration phases. The day before the first dosing, the rats underwent surgical implantation of an in-dwelling cannula; the right femoral artery was cannulated and the tube was passed subcutaneously to emerge at the back of the neck. The animals were individually housed in metabolism cages and fasted overnight before administrations.
(§3) The dose solution was administered (5 mL/kg) by gastric incubation.
(§4) The dose solution was administered (2 mL/kg) into the surgically exposed femoral vein.
(§5) During the study, 18 blood samples (100-500 μL) were taken, up to 48 hours post-dose from the cannulated femoral artery representing a total volume of 5.7 mL blood. The loss of blood was compensated by infusion of 6 times 1 mL of blood from donor rats. Urine samples were collected up to 48 hours post-dose. For the analysis of the in vivo brain distribution, 3 male rats were intravenously dosed (1 mg/kg or 72 μCi/kg) as described above. At 0.5 hours after administration, the rats were sacrificed; blood and brain were collected.
(§6) Determination of radioactivity in blood, plasma, brain homogenates and in urine, was carried out by direct liquid scintillation counting. Prior to radiometric determination, blood and tissue were solubilized in Solutron (Kontron Instruments, Zurich, Switzerland). After adding 10 mL of scintillation cocktail (Lumasafe, Lumac, Landgraaf, the Netherlands), all samples were counted in Tri-carb liquid scintillation analyzer (Canberra Packard, IL).
(§7) The procedure involved the addition of 5 μg of non-radiolabeled 42 to each blood sample as an internal standard. After adding 1 mL of acetonitrile, the sample was mixed with a Polytron mixer and centrifuged (234000×g, 30 minutes) in a Beckman centrifuge (Model TL100). The supernatant was evaporated in a vacuum centrifuge (Univapo 150H, Zivy). The residue was reconstituted in 250 μL of mobile phase-water (3:1 v/v) and centrifuged (3000×g, 60 s). The supernatant (200 μL) was injected onto HPLC. […] Compound 42 was separated from potential metabolites and endogenous compounds on a RP18 endcapped Superspher column, 125 mm×4 mm (Merck) at 45° C. The mobile phase consisted of 0.1% tetramethylammonium hydroxide—acetonitrile (500:500 v/v). The flow rate was 1 mL/min; the effluent was monitored at 260 nm. […] The limit of quantification was 0.3 ng/mL.
(§8) The peeling method was applied to describe the data by a compartment model approach, characterized by the following equation: C═C1*e^λ1−t+C2*e^λ2−t. The initial estimates of C1, λ1, C2, λ2 were taken to generate the best fit using the computer software ELSFIT. The estimates for half-lives were calculated as T1/2λi=ln2/λi.
The next data set can be described thus: in vivo. Particulars: male, Wistar, rat.
[8] abbreviates: 48 hours i.v. infusion 100 μg/h.

Where “and” joins values, the source holds several entries; their conditions need not be identical. Identical values can stand only once. Like-named read-outs stand apart in the source and are kept apart here.

sst2, sequence (P30874 whole entry, species assumed): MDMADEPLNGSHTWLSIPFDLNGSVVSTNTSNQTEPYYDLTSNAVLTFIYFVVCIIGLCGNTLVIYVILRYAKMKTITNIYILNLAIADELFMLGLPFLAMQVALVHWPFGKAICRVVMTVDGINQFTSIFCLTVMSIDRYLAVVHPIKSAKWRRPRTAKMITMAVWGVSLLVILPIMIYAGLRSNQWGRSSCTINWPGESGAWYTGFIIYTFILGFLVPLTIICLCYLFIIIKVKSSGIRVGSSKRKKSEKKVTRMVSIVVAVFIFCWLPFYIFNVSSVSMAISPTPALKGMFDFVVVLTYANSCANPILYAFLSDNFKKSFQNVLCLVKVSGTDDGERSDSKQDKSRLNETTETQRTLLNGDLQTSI
Experimental for in vivo: as §2, §3, §4, §5, §6, §7, §8

In the case of `Cc1cccc2c(CC3C(=O)N(CCCCCN)C(=O)N3S(=O)(=O)c3ccc(Oc4ccc(O)cc4)c(C#N)c3)c[nH]c12` (stereo not shown) [Compound 14], the “sst2 cyclase pEC50” value on sst2 stood at 9.32.

Consider `N#Cc1cc(S(=O)(=O)N2C(=O)N(CCCCCN)C(=O)C2Cc2c[nH]c3ccccc23)ccc1Oc1ccc(N)cc1` (stereo not shown) [Compound 42], for which the concentration at 48 h in [1] (brain, 48 hours i.v. infusion 100 μg/h, read-out: Concentration in brain, MEAN ± SD) is 18 ± 7 ng/g; in [1] (whole blood, 48-hours i.v. infusion of 100 μg/h, read-out: blood concentration) it was 66 ± 14 ng/mL; in data set [1] (whole blood, 48 hours i.v. infusion 100 μg/h, read-out: Concentration in blood, MEAN ± SD) it was 66 ± 14 ng/g; in data set [1] (whole blood, 48 hours i.v. infusion 100 μg/h, read-out: Concentration in blood, individual animals) it was 59 ng/g. The Kp at 48 h was 0.27 ± 0.07 in data set [1] (48 hours i.v. infusion 100 μg/h, read-out: Brain/Blood Ratio, MEAN ± SD) and 0.27 in data set [1] (48 hours i.v. infusion 100 μg/h, read-out: Brain/Blood Ratio, individual animals). The “Brain/Blood Ratio, MEAN ± SD” value in [1] (setting [8]) came out at 0.27 ± 0.07. In addition, the “Brain/Blood Ratio, individual animals” value in data set [1] (setting [8]) was 0.27 and 0.38 and 0.21 and 0.22. In data set [1] (setting [8]), the “Concentration in brain, MEAN ± SD” value turned out to be 18 ± 7 ng/g. Further, the “Concentration in brain, individual animals” value in [1] (setting [8]) is 16 ng/g (2×) and 21 ng/g and 29 ng/g and 10 ng/g. In [2], the “unidirectional brain extraction (BUI experiments), Ringer buffer” value came out at 41%. Further, the “fraction taken up by capillaries, of the brain penetration” value in data set [3] came out at 5%. Besides, the “proportion present in plasma at 4° C.” value in [4] (4° C.) is 69-92%. The “proportion present in plasma at 37° C.” value in data set [4] (37° C.) is listed as 40-60%. Also, the binding to plasma proteins in [5] worked out at 90%. Besides, the “fraction free in rat plasma” value in data set [5] (50-5000 ng/mL, 37° C.) is 10-12%. Also, the “fraction free in human plasma” value in [6] was 15-23%. Also, the “AUC ratio parent drug/radioactivity” value in [7] is reported as 0.7. In [7], the “f2 (fraction of dose eliminated within λ2)” value was 67%. In “in vivo”, this compound showed a bioavailability of 1.3 ± 0.9%. In “in vivo” (iv, 1 mg/kg), this compound had a Vd of 20 L/kg. Moreover, in “in vivo” (iv, 1 mg/kg), the clearance was 4.5 mL/min. Besides, the half-life in “in vivo” (iv, first half-life t1/2λ1) was 0.45 h; in “in vivo” (iv, terminal half-life t1/2), 24 h.
